Source: patent US20090076201A1, “(METH) ACRYLOYLOXYTETRAHYDROFURANS AND PROCESS FOR PRODUCTION THEREOF” (Mitsubishi Chemical Corporation, priority 2005, published 2009)

Experiment: Solubility test in heptane and aqueous solvents at 26° C.
Settings: grams of solute dissolved in 100 g of solvent
Experimental: A solubility test of erythritan monomethacrylate (HOTHFMA) in aqueous solvents shown in the following table was carried out at a temperature of 26° C. In this connection, for the purpose of comparison, data on tetrahydrofurfuryl methacrylate (TFMA) and α-methacryloyl-γ-butyrolactone (GBLMA) are also shown. The numeric values in the table represent grams of individual solutes dissolved in 100 g of each solvent.

Solubility (26° C.) in H2O (solvent H2O): >395 g/100 g solv.
Solubility (26° C.) in H2O/MeOH 4/1 (wt) (solvent H2O/MeOH 4/1 (wt)): >353 g/100 g solv.
Solubility (26° C.) in Heptane (solvent heptane): 1.74 g/100 g solv.
SMILES: C=C(C)C(=O)OC1COCC1O (stereo not drawn) [HOTHFMA, 3-methacryloyloxy-4-hydroxytetrahydrofuran]
